Results published in PubChem BioAssay AID256 (DTP/NCI, 2004).
Values joined by “and” are separate entries in the source; they are usually repeats but may differ in a detail not shown here. Identical values can stand only once. Toxic doses and inconclusive results are not listed.

Tested on: CD2F1 mice, L1210 leukemia ip, survival T/C
Assay: NCI In Vivo Anticancer Drug Screen. Data for tumor model L1210 Leukemia (intraperitoneal) in CD2F1 (CDF1) mice
Conditions: higher = longer survival
Method in brief: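 Tumor-bearing mice (transplanted tumor) were split into treated and vehicle control groups, and the measured endpoint of each treated group was divided by that of its vehicle controls.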

[1] = endpoint: mean survival time, dose: 100.0 mg/kg/injection, schedule: Q04DX002 (ip), vehicle: saline with Tween-80
[2] = endpoint: mean survival time, dose: 12.5 mg/kg/injection, schedule: Q04DX003 (ip), vehicle: saline with Tween-80
[3] = endpoint: mean survival time, dose: 50.0 mg/kg/injection, schedule: Q01DX009 (ip), vehicle: saline with Tween-80
[4] = endpoint: mean survival time, dose: 100.0 mg/kg/injection, schedule: Q01DX009 (ip), vehicle: saline with Tween-80
[5] = endpoint: mean survival time, dose: 200.0 mg/kg/injection, schedule: Q01DX009 (ip), vehicle: saline with Tween-80
[6] = endpoint: mean survival time, dose: 100.0 mg/kg/injection, schedule: Q04DX003 (ip), vehicle: saline with Tween-80
[7] = endpoint: mean survival time, dose: 200.0 mg/kg/injection, schedule: Q04DX003 (ip), vehicle: saline with Tween-80
[8] = endpoint: mean survival time, dose: 50.0 mg/kg/injection, schedule: Q04DX003 (ip), vehicle: saline
[9] = endpoint: mean survival time, dose: 50.0 mg/kg/injection, schedule: Q04DX003 (ip), vehicle: saline with Tween-80
[10] = endpoint: mean survival time, dose: 100.0 mg/kg/injection, schedule: Q01DX009 (ip), vehicle: saline sonified
[11] = endpoint: mean survival time, dose: 200.0 mg/kg/injection, schedule: Q01DX009 (ip), vehicle: saline sonified

COC1=CCC23C(=O)C=CC(=O)C2(C1)C(=O)c1ccccc1C3=O (centres undefined)
T/C (endpoint: median survival time, dose: 3.12 mg/kg/injection, schedule: Q01DX009 (ip), vehicle: saline with Tween-80): 102 % of control
T/C (endpoint: median survival time, dose: 6.25 mg/kg/injection, schedule: Q01DX009 (ip), vehicle: saline with Tween-80): 105 % of control
T/C (endpoint: median survival time, dose: 12.5 mg/kg/injection, schedule: Q01DX009 (ip), vehicle: saline with Tween-80): 112 % of control
T/C (endpoint: median survival time, dose: 25.0 mg/kg/injection, schedule: Q01DX009 (ip), vehicle: saline with Tween-80): 104 % of control

COC12C(COC(N)=O)C3=C(C(=O)C(C)=C(N4CC4C#N)C3=O)N1CC1NC12 (centres undefined)
T/C (endpoint: median survival time, dose: 0.19 mg/kg/injection, schedule: Q01DX001 (ip), vehicle: water): 120 % of control
T/C (endpoint: median survival time, dose: 0.38 mg/kg/injection, schedule: Q01DX001 (ip), vehicle: water): 121 % of control
T/C (endpoint: median survival time, dose: 0.75 mg/kg/injection, schedule: Q01DX001 (ip), vehicle: water): 123 % of control
T/C (endpoint: median survival time, dose: 1.5 mg/kg/injection, schedule: Q01DX001 (ip), vehicle: water): 121 % of control

CN1C(=O)C(C(O)(c2ccccc2)c2ccccc2)C1c1ccccc1 (centres undefined)
T/C (endpoint: mean survival time, dose: 50.0 mg/kg/injection, schedule: Q04DX002 (ip), vehicle: saline with Tween-80): 96 % of control
T/C [1]: 96 % of control
T/C (endpoint: mean survival time, dose: 200.0 mg/kg/injection, schedule: Q04DX002 (ip), vehicle: saline with Tween-80): 96 % of control

O=[N+]([O-])c1c[c]([Hg][Cl])c(O)[c]([Hg][Cl])c1
T/C [2]: 93 % of control

c1ccc2c(c1)CN(C1CCCCC1)CO2
T/C [3]: 98 % of control
T/C [4]: 97 % of control
T/C [5]: 97 % of control

CSCSCC(N)CO (centres undefined)
T/C (endpoint: mean survival time, dose: 25.0 mg/kg/injection, schedule: Q01DX009 (ip), vehicle: Klucel (hydroxypropylcellulose) (HPC)): 102 % of control
T/C (endpoint: mean survival time, dose: 50.0 mg/kg/injection, schedule: Q01DX009 (ip), vehicle: Klucel (hydroxypropylcellulose) (HPC)): 94 % of control
T/C (endpoint: mean survival time, dose: 100.0 mg/kg/injection, schedule: Q01DX009 (ip), vehicle: Klucel (hydroxypropylcellulose) (HPC)): 93 % of control
T/C (endpoint: mean survival time, dose: 200.0 mg/kg/injection, schedule: Q01DX009 (ip), vehicle: Klucel (hydroxypropylcellulose) (HPC)): 96 % of control
T/C (endpoint: mean survival time, dose: 400.0 mg/kg/injection, schedule: Q01DX009 (ip), vehicle: Klucel (hydroxypropylcellulose) (HPC)): 96 % of control

Cc1c2ccccc2c(CN(C)CC(=O)O)c2ccccc12
T/C [6]: 102 % of control
T/C [7]: 102 % of control

O=S(=O)(Cl)c1ccc2cc3ccccc3cc2c1
T/C [8]: 96 % of control
T/C (endpoint: mean survival time, dose: 100.0 mg/kg/injection, schedule: Q01DX001 (ip), vehicle: saline): 94 % of control
T/C (endpoint: mean survival time, dose: 100.0 mg/kg/injection, schedule: Q04DX003 (ip), vehicle: saline): 96 % of control
T/C (endpoint: mean survival time, dose: 200.0 mg/kg/injection, schedule: Q01DX001 (ip), vehicle: saline): 101 % of control
T/C (endpoint: mean survival time, dose: 200.0 mg/kg/injection, schedule: Q04DX003 (ip), vehicle: saline): 102 % of control

Cc1ccc2ccccc2[n+]1[O-]
T/C [1]: 111 % of control

O=[N+]([O-])c1ccccc1CSc1ncnc2nc[nH]c12
T/C [3]: 110 % of control
T/C [9]: 108 % of control
T/C [4]: 121 % of control
T/C [6]: 110 % of control
T/C (endpoint: mean survival time, dose: 132.0 mg/kg/injection, schedule: Q04DX003 (ip), vehicle: saline with Tween-80): 108 % of control
T/C [5]: 158 % of control

CCCCCCCCS
T/C [4]: 100 % of control
T/C [5]: 91 % of control
T/C (endpoint: mean survival time, dose: 400.0 mg/kg/injection, schedule: Q01DX009 (ip), vehicle: saline with Tween-80): 92 % of control

O=C1c2ccccc2C(=O)c2c(O)c(Cc3cccnc3)cc(O)c21
T/C [10]: 98 % of control
T/C [11]: 98 % of control
T/C (endpoint: mean survival time, dose: 400.0 mg/kg/injection, schedule: Q01DX009 (ip), vehicle: saline sonified): 102 % of control

CC(=O)OCC(=O)C1CCC2C3CCC4CC(OC(C)=O)CCC4(C)C3CCC12C (centres undefined)
T/C (endpoint: mean survival time, dose: 100.0 mg/kg/injection, schedule: Q01DX001 (ip), vehicle: saline with Tween-80): 91 % of control
T/C (endpoint: mean survival time, dose: 200.0 mg/kg/injection, schedule: Q01DX001 (ip), vehicle: saline with Tween-80): 91 % of control
T/C (endpoint: mean survival time, dose: 400.0 mg/kg/injection, schedule: Q01DX001 (ip), vehicle: saline with Tween-80): 105 % of control

CC(=O)Nc1cccc(C[P+](c2ccccc2)(c2ccccc2)c2ccccc2)c1
T/C [6]: 92 % of control
T/C [7]: 92 % of control

C1CN(CCSSCCN2CCOCC2)CCO1
T/C (endpoint: mean survival time, dose: 50.0 mg/kg/injection, schedule: Q01DX009 (ip), vehicle: saline sonified): 100 % of control
T/C [10]: 100 % of control
T/C [6]: 104 % of control
T/C [11]: 103 % of control
T/C [7]: 104 % of control

c1ccc(C[N+]23CCN(CC2)CC3)cc1
T/C (endpoint: mean survival time, dose: 12.5 mg/kg/injection, schedule: Q04DX003 (ip), vehicle: saline): 98 % of control
T/C (endpoint: mean survival time, dose: 25.0 mg/kg/injection, schedule: Q04DX003 (ip), vehicle: saline): 98 % of control
T/C [8]: 101 % of control

NC(N)=NOCC[C@@H](N)C(=O)O
T/C (endpoint: median survival time, dose: 25.0 mg/kg/injection, schedule: Q01DX009 (ip), vehicle: saline): 102 % of control
T/C (endpoint: median survival time, dose: 50.0 mg/kg/injection, schedule: Q01DX009 (ip), vehicle: saline): 101 % of control
T/C (endpoint: median survival time, dose: 100.0 mg/kg/injection, schedule: Q01DX009 (ip), vehicle: saline): 98 % of control
T/C (endpoint: median survival time, dose: 200.0 mg/kg/injection, schedule: Q01DX009 (ip), vehicle: saline): 103 % of control
T/C (endpoint: median survival time, dose: 400.0 mg/kg/injection, schedule: Q01DX009 (ip), vehicle: saline): 102 % of control
T/C (endpoint: median survival time, dose: 500.0 mg/kg/injection, schedule: Q01DX001 (ip), vehicle: saline): 97 % of control
T/C (endpoint: median survival time, dose: 750.0 mg/kg/injection, schedule: Q01DX001 (ip), vehicle: saline): 96 % of control
T/C (endpoint: median survival time, dose: 1000.0 mg/kg/injection, schedule: Q01DX001 (ip), vehicle: saline): 84 % of control
T/C (endpoint: median survival time, dose: 2500.0 mg/kg/injection, schedule: Q01DX001 (ip), vehicle: saline): 97 % of control

COc1cccc2c1C(=O)c1c(O)c3c(c(O)c1C2=O)CC(O)(/C(C)=N/NC(=O)CCCCC(=O)N/N=C(\C)C1(O)Cc2c(O)c4c(c(O)c2C(OC2CC(N)C(O)C(C)O2)C1)C(=O)c1c(OC)cccc1C4=O)CC3OC1CC(N)C(O)C(C)O1 (centres undefined)
T/C (endpoint: median survival time, dose: 1.5 mg/kg/injection, schedule: Q01DX009 (ip), vehicle: water): 116 % of control and 123 % of control
T/C (endpoint: median survival time, dose: 3.0 mg/kg/injection, schedule: Q01DX009 (ip), vehicle: water): 121 % of control
T/C (endpoint: median survival time, dose: 6.25 mg/kg/injection, schedule: Q01DX009 (ip), vehicle: water): 153 % of control
T/C (endpoint: median survival time, dose: 12.5 mg/kg/injection, schedule: Q01DX009 (ip), vehicle: water): 108 % of control
T/C (endpoint: median survival time, dose: 24.0 mg/kg/injection, schedule: Q01DX009 (ip), vehicle: water): 97 % of control
T/C (endpoint: median survival time, dose: 25.0 mg/kg/injection, schedule: Q01DX009 (ip), vehicle: water): 87 % of control

CC1=C(/C=C/C(C)=C/C=C/C(C)=C/C(=O)O)C(C)(C)CCC1
T/C (endpoint: mean survival time, dose: 8.0 mg/kg/injection, schedule: Q01DX009 (ip), vehicle: saline with Tween-80): 100 % of control
T/C (endpoint: mean survival time, dose: 16.0 mg/kg/injection, schedule: Q01DX009 (ip), vehicle: saline with Tween-80): 95 % of control
T/C (endpoint: mean survival time, dose: 32.0 mg/kg/injection, schedule: Q01DX009 (ip), vehicle: saline with Tween-80): 95 % of control
T/C (endpoint: mean survival time, dose: 64.0 mg/kg/injection, schedule: Q01DX009 (ip), vehicle: saline with Tween-80): 97 % of control
T/C [6]: 105 % of control
T/C (endpoint: mean survival time, dose: 128.0 mg/kg/injection, schedule: Q01DX009 (ip), vehicle: saline with Tween-80): 87 % of control
T/C [7]: 100 % of control
T/C (endpoint: mean survival time, dose: 400.0 mg/kg/injection, schedule: Q04DX003 (ip), vehicle: saline with Tween-80): 97 % of control

Nc1nc(N)c2nc(-c3ccccc3)c(N)nc2n1
T/C (endpoint: mean survival time, dose: 12.5 mg/kg/injection, schedule: Q01DX009 (ip), vehicle: saline with Tween-80): 97 % of control
T/C [2]: 102 % of control
T/C (endpoint: mean survival time, dose: 25.0 mg/kg/injection, schedule: Q01DX009 (ip), vehicle: saline with Tween-80): 98 % of control
T/C (endpoint: mean survival time, dose: 25.0 mg/kg/injection, schedule: Q04DX003 (ip), vehicle: saline with Tween-80): 95 % of control
T/C [3]: 94 % of control
T/C [9]: 98 % of control

CCC1=C[C@H]2CN(CCc3c([nH]c4ccccc34)[C@@](C(=O)OC)(c3cc4c(cc3OC)N(C)[C@H]3[C@@](O)(C(=O)NC)[C@H](OC(C)=O)[C@]5(CC)C=CCN6CC[C@]43[C@@H]65)C2)C1
T/C (endpoint: mean survival time, dose: 0.03 mg/kg/injection, schedule: Q01DX009 (ip), vehicle: water): 101 % of control
T/C (endpoint: mean survival time, dose: 0.06 mg/kg/injection, schedule: Q01DX009 (ip), vehicle: water): 111 % of control
